Measurements from patent US20250114374A1, “BCL-2 INHIBITORS” (Newave Pharmaceutical Inc., priority 2021, published 2025).

Test system: RS4; 11 with G101V mutation
Experiment: In vitro anti-proliferation assay (ATPlite luminescence) in BCL-2-dependent ALL cell line RS4;11 with G101V mutation
Type: cell-based
Conditions: cellular anti-proliferative IC50, about 72 hours, medium with 10% FBS, ATPlite; read-out: RS411-G101V IC50
Method in brief: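 RS4;11 G101V cells at about 1×10^4 per well were exposed to a range of compound concentrations for about 72 h in medium with 10% FBS. Cellular ATP was measured by ATPlite luminescence after lysis, and IC50 was derived from the dose-response.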

Compound | IC50
Cc1ccccc1[C@@H]1CN(C2CCN(C3CCOCC3)CC2)CCN1C1CC2(CCN(c3ccc(C(=O)NS(=O)(=O)c4cc5c(c([N+](=O)[O-])c4)N[C@H](C4CCOCC4)CO5)c(N4c5cc6cc[nH]c6nc5O[C@H]5COCC[C@@H]54)c3)CC2)C1 [Example 201, 2-[(3R,8S)-2,5-dioxa-9,15,17-triazatetracyclo[8.7.0.0^{3,8}.0^{12,16}]heptadeca-1(10),11,13,16-tetraen-9-yl]-4-{2-[(2R)-2-(2-methylphenyl)-4-[1-(oxan-4-yl)piperidin-4-yl]piperazin-1-yl]-7-azaspiro[3.5]nonan-7-yl}-N-[(3R)-5-nitro-3-(oxan-4-yl)-3,4-dihydro-2H-1,4-benzoxazin-7-ylsulfonyl]benzamide] | 232 nM
Cc1ccccc1[C@@H]1CN(C2CCC3(CCOCC3)CC2)CCN1C1CC2(CCN(c3ccc(C(=O)NS(=O)(=O)c4cc5c(c([N+](=O)[O-])c4)N[C@H](C4CCOCC4)CO5)c(N4c5cc6cc[nH]c6nc5O[C@H]5COCC[C@@H]54)c3)CC2)C1 (stereo partly drawn) [Example 202, 2-[(3R,8S)-2,5-dioxa-9,15,17-triazatetracyclo[8.7.0.0^{3,8}.0^{12,16}]heptadeca-1(10),11,13,16-tetraen-9-yl]-4-{2-[(2R)-2-(2-methylphenyl)-4-{3-oxaspiro[5.5]undecan-9-yl}piperazin-1-yl]-7-azaspiro[3.5]nonan-7-yl}-N-[(3R)-5-nitro-3-(oxan-4-yl)-3,4-dihydro-2H-1,4-benzoxazin-7-ylsulfonyl]benzamide] | 15.1 nM
Cc1ccccc1[C@@H]1CN(C2CCC(N3CCOC[C@@H]3C)CC2)CCN1C1CC2(CCN(c3ccc(C(=O)NS(=O)(=O)c4cc5c(c([N+](=O)[O-])c4)N[C@H](C4CCOCC4)CO5)c(N4c5cc6cc[nH]c6nc5O[C@H]5COCC[C@@H]54)c3)CC2)C1 (stereo partly drawn) [Example 203, 4-(2-((R)-4-((1S,4R)-4-((S)-3-methylmorpholino)cyclohexyl)-2-(o-tolyl)piperazin-1-yl)-7-azaspiro[3.5]nonan-7-yl)-N-(((R)-5-nitro-3-(tetrahydro-2H-pyran-4-yl)-3,4-dihydro-2H-benzo[b][1,4]oxazin-7-yl)sulfonyl)-2-((5aS,9aR)-6,7,9,9a-tetrahydro-1H-pyrano[3,4-b]pyrrolo[3′,2′:5,6]pyrido[3,2-e][1,4]oxazin-5(5aH)-yl)benzamide] | 68.6 nM
Cc1ccccc1[C@@H]1CN(C2CCC(N3CCOC[C@@H]3C)CC2)CCN1C1CC2(CCN(c3ccc(C(=O)NS(=O)(=O)c4cc5c(c([N+](=O)[O-])c4)N[C@H](C4CCOCC4)CO5)c(N4c5cc6cc[nH]c6nc5O[C@H]5COCC[C@@H]54)c3)CC2)C1 (stereo partly drawn) [Example 204, 4-(2-((R)-4-((1R,4S)-4-((S)-3-methylmorpholino)cyclohexyl)-2-(o-tolyl)piperazin-1-yl)-7-azaspiro[3.5]nonan-7-yl)-N-(((R)-5-nitro-3-(tetrahydro-2H-pyran-4-yl)-3,4-dihydro-2H-benzo[b][1,4]oxazin-7-yl)sulfonyl)-2-((5aS,9aR)-6,7,9,9a-tetrahydro-1H-pyrano[3,4-b]pyrrolo[3′,2′:5,6]pyrido[3,2-e][1,4]oxazin-5(5aH)-yl)benzamide] | 27.5 nM
Cc1ccccc1[C@@H]1CN(Cc2cnc(N3CCOC[C@@H]3C)c(C)c2)CCN1C1CC2(CCN(c3ccc(C(=O)NS(=O)(=O)c4cc5c(c([N+](=O)[O-])c4)N[C@H](C4CCOCC4)CO5)c(N4c5cc6cc[nH]c6nc5O[C@H]5COCC[C@@H]54)c3)CC2)C1 [Example 205, 2-[(3R,8S)-2,5-dioxa-9,15,17-triazatetracyclo[8.7.0.0^{3,8}.0^{12,16}]heptadeca-1(10),11,13,16-tetraen-9-yl]-4-{2-[(2R)-4-({5-methyl-6-[(3S)-3-methylmorpholin-4-yl]pyridin-3-yl}methyl)-2-(2-methylphenyl)piperazin-1-yl]-7-azaspiro[3.5]nonan-7-yl}-N-[(3R)-5-nitro-3-(oxan-4-yl)-3,4-dihydro-2H-1,4-benzoxazin-7-ylsulfonyl]benzamide] | 21.3 nM
Cc1ccccc1[C@@H]1CN(Cc2cnc(N3CCOC[C@@H]3C)c(C(F)(F)F)c2)CCN1C1CC2(CCN(c3ccc(C(=O)NS(=O)(=O)c4cc5c(c([N+](=O)[O-])c4)N[C@H](C4CCOCC4)CO5)c(N4c5cc6cc[nH]c6nc5O[C@H]5COCC[C@@H]54)c3)CC2)C1 [Example 206, 2-[(3R,8S)-2,5-dioxa-9,15,17-triazatetracyclo[8.7.0.0^{3,8}.0^{12,16}]heptadeca-1(10),11,13,16-tetraen-9-yl]-4-{2-[(2R)-4-({6-[(3S)-3-methylmorpholin-4-yl]-5-(trifluoromethyl)pyridin-3-yl}methyl)-2-(2-methylphenyl)piperazin-1-yl]-7-azaspiro[3.5]nonan-7-yl}-N-[(3R)-5-nitro-3-(oxan-4-yl)-3,4-dihydro-2H-1,4-benzoxazin-7-ylsulfonyl]benzamide] | 229 nM
CC(C)Oc1ccccc1[C@@H]1CN(C2CCC(C)(O)CC2)CCN1C1CC2(CCN(c3ccc(C(=O)NS(=O)(=O)c4cc5c(c([N+](=O)[O-])c4)N[C@H](C4CCOCC4)CO5)c(N4c5cc6cc[nH]c6nc5O[C@H]5COCC[C@@H]54)c3)CC2)C1 (stereo partly drawn) [Example 207, 4-(2-((R)-4-((1r,4R)-4-hydroxy-4-methylcyclohexyl)-2-(2-isopropoxyphenyl)piperazin-1-yl)-7-azaspiro[3.5]nonan-7-yl)-N-(((R)-5-nitro-3-(tetrahydro-2H-pyran-4-yl)-3,4-dihydro-2H-benzo[b][1,4]oxazin-7-yl)sulfonyl)-2-((5aS,9aR)-6,7,9,9a-tetrahydro-1H-pyrano[3,4-b]pyrrolo[3′,2′:5,6]pyrido[3,2-e][1,4]oxazin-5(5aH)-yl)benzamide] | 26.9 nM
CC(C)Oc1ccccc1[C@@H]1CN(C2CCC3(CCOCC3)CC2)CCN1C1CC2(CCN(c3ccc(C(=O)NS(=O)(=O)c4cc5c(c([N+](=O)[O-])c4)N[C@H](C4CCOCC4)CO5)c(N4c5cc6cc[nH]c6nc5O[C@H]5COCC[C@@H]54)c3)CC2)C1 (stereo partly drawn) [Example 209, 2-[(3R,8S)-2,5-dioxa-9,15,17-triazatetracyclo[8.7.0.0^{3,8}.0^{12,16}]heptadeca-1(10),11,13,16-tetraen-9-yl]-4-{2-[(2R)-2-(2-isopropoxyphenyl)-4-{3-oxaspiro[5.5]undecan-9-yl}piperazin-1-yl]-7-azaspiro[3.5]nonan-7-yl}-N-[(3R)-5-nitro-3-(oxan-4-yl)-3,4-dihydro-2H-1,4-benzoxazin-7-ylsulfonyl]benzamide] | 16.3 nM
CC(C)Oc1ccccc1[C@@H]1CN([C@H]2CCOc3cc(F)c(F)cc32)CCN1C1CC2(CCN(c3ccc(C(=O)NS(=O)(=O)c4cc5c(c([N+](=O)[O-])c4)N[C@H](C4CCOCC4)CO5)c(N4c5cc6cc[nH]c6nc5O[C@H]5COCC[C@@H]54)c3)CC2)C1 [Example 210, 4-{2-[(2R)-4-[(4S)-6,7-difluoro-3,4-dihydro-2H-1-benzopyran-4-yl]-2-(2-isopropoxyphenyl)piperazin-1-yl]-7-azaspiro[3.5]nonan-7-yl}-2-[(3R,8S)-2,5-dioxa-9,15,17-triazatetracyclo[8.7.0.0^{3,8}.0^{12,16}]heptadeca-1(10),11,13,16-tetraen-9-yl]-N-[(3R)-5-nitro-3-(oxan-4-yl)-3,4-dihydro-2H-1,4-benzoxazin-7-ylsulfonyl]benzamide] | 37.8 nM
CC(C)Oc1ccccc1[C@@H]1CN([C@@H]2CCOc3cc(F)c(F)cc32)CCN1C1CC2(CCN(c3ccc(C(=O)NS(=O)(=O)c4cc5c(c([N+](=O)[O-])c4)N[C@H](C4CCOCC4)CO5)c(N4c5cc6cc[nH]c6nc5O[C@H]5COCC[C@@H]54)c3)CC2)C1 [Example 211, 4-{2-[(2R)-4-[(4R)-6,7-difluoro-3,4-dihydro-2H-1-benzopyran-4-yl]-2-(2-isopropoxyphenyl)piperazin-1-yl]-7-azaspiro[3.5]nonan-7-yl}-2-[(3R,8S)-2,5-dioxa-9,15,17-triazatetracyclo[8.7.0.0^{3,8}.0^{12,16}]heptadeca-1(10),11,13,16-tetraen-9-yl]-N-[(3R)-5-nitro-3-(oxan-4-yl)-3,4-dihydro-2H-1,4-benzoxazin-7-ylsulfonyl]benzamide] | 87.2 nM
CC(C)Oc1ccccc1[C@@H]1CN([C@@H]2CCOc3c2ccc(F)c3F)CCN1C1CC2(CCN(c3ccc(C(=O)NS(=O)(=O)c4cc5c(c([N+](=O)[O-])c4)N[C@H](C4CCOCC4)CO5)c(N4c5cc6cc[nH]c6nc5O[C@H]5COCC[C@@H]54)c3)CC2)C1 [Example 212, 4-{2-[(2R)-4-[(4R)-7,8-difluoro-3,4-dihydro-2H-1-benzopyran-4-yl]-2-(2-isopropoxyphenyl)piperazin-1-yl]-7-azaspiro[3.5]nonan-7-yl}-2-[(3R,8S)-2,5-dioxa-9,15,17-triazatetracyclo[8.7.0.0^{3,8}.0^{12,16}]heptadeca-1(10),11,13,16-tetraen-9-yl]-N-[(3R)-5-nitro-3-(oxan-4-yl)-3,4-dihydro-2H-1,4-benzoxazin-7-ylsulfonyl]benzamide] | 33.5 nM
CC(C)Oc1ccccc1[C@@H]1CN([C@H]2CCOc3c2ccc(F)c3F)CCN1C1CC2(CCN(c3ccc(C(=O)NS(=O)(=O)c4cc5c(c([N+](=O)[O-])c4)N[C@H](C4CCOCC4)CO5)c(N4c5cc6cc[nH]c6nc5O[C@H]5COCC[C@@H]54)c3)CC2)C1 [Example 213, 4-{2-[(2R)-4-[(4S)-7,8-difluoro-3,4-dihydro-2H-1-benzopyran-4-yl]-2-(2-isopropoxyphenyl)piperazin-1-yl]-7-azaspiro[3.5]nonan-7-yl}-2-[(3R,8S)-2,5-dioxa-9,15,17-triazatetracyclo[8.7.0.0^{3,8}.0^{12,16}]heptadeca-1(10),11,13,16-tetraen-9-yl]-N-[(3R)-5-nitro-3-(oxan-4-yl)-3,4-dihydro-2H-1,4-benzoxazin-7-ylsulfonyl]benzamide] | 23.8 nM
